Results: patent US8143279B2, “Benzimidazole-carboxamide compounds as 5-HT4 receptor agonists” (Theravance, Inc., priority 2005, dated 2012)

Columns and labels:
[1] = Solid state stability assessment; format: physicochemical; conditions: three months at 40° C. and 75% RH, open glass vials
Procedure: Solid State Stability Assessment
Samples of the crystalline compound of Form I, prepared according to the process of Example 216, were stored in multiple open glass vials at 40° C. and 75% RH. At specific intervals, the contents of a representative vial was removed and analyzed by DSC, TGA, PXRD, and by HPLC for chemical purity.

[2] = Procedure: Thermogravimetric analysis (TGA) was performed using a TA Instruments Model Q-500 module. Data were collected and analyzed using TA Instruments Thermal Advantage for Q Series™ software. A sample weighing about 2 mg was placed in an aluminum pan on a platinum cradle and scanned from ambient temperature to about 300° C. with a linear heating rate of 10° C./min. The balance and furnace chambers were purged with nitrogen during use.
[3] = Dynamic moisture sorption assessment; format: physicochemical; conditions: 25° C.
Procedure: Dynamic Moisture Sorption Assessment
Dynamic moisture sorption (DMS) assessment was performed at 25° C. using a VTI atmospheric microbalance, SGA-100 system (VTI Corp., Hialeah, Fla. 33016). A sample size of approximately 5-10 mg was used and the humidity was set at the ambient value at the start of the analysis. A typical DMS analysis consisted of three scans: ambient to 2% relative humidity (RH), 2% RH to 90% RH, 90% RH to 5% RH at a scan rate of 5% RH/step. The mass was measured every two minutes and the RH was changed to the next value (±5% RH) when the mass of the sample was stable to within 0.02% for 5 consecutive points.

[4] = Pharmacokinetic study in the rat; format: in vivo
Procedure: Assay 6: Pharmacokinetic Study in the Rat
Aqueous solution formulations of test compounds were prepared in 0.1% lactic acid at a pH of between about 5 and about 6. Male Sprague-Dawley rats (CD strain, Charles River Laboratories, Wilmington, Mass.) were dosed with test compounds via intravenous administration (IV) at a dose of 2.5 mg/kg or by oral gavage (PO) at a dose of 5 mg/kg. The dosing volume was 1 mL/kg for IV and 2 mL/kg for PO administration. Serial blood samples were collected from animals pre-dose, and at 2 (IV only), 5, 15, and 30 min, and at 1, 2, 4, 8, and 24 hours post-dose.
Standard pharmacokinetic parameters were assessed by non-compartmental analysis (Model 201 for IV and Model 200 for PO) using WinNonlin (Version 4.0.1, Pharsight, Mountain View, Calif.). The maximum in the curve of test compound concentration in blood plasma vs. time is denoted Cmax. The area under the concentration vs. time curve from the time of dosing to the last measurable concentration (AUC(0-t)) was calculated by the linear trapezoidal rule.

[5] = male Sprague-Dawley rats, PO 5 mg/kg, blood plasma

Row | Structure (SMILES) | change in the DSC or TGA thermograms and PXRD pattern after storage [1] | chemical purity of the stored sample (HPLC) [1] [%] | onset of degradation (TGA) [2] | weight change (moisture sorption) ([3]; 2% to 90% RH) | weight change (moisture sorption) ([3]; critical humidity range of 40% to 75% RH) | AUC(0-t) [4, 5] [ng·h/mL] | Cmax [4, 5] [ng/mL] | bioavailability ([4]; male, Sprague-Dawley, plasma, PO 5 mg/kg vs IV 2.5 mg/kg, read-out: oral bioavailability (F(%))) [%]
1 | COC(=O)N1CCC(CN2CCC(CNC(=O)c3cccc4[nH]c(C(C)C)nc34)CC2)CC1 [Form I, 4-(4-{[(2-isopropyl-1H-benzoimidazole-4-carbonyl)-amino]methyl}piperidin-1-ylmethyl)piperidine-1-carboxylic acid methyl ester] | no detectable change | 99.5 | above 240 °C | less than 0.25% | less than 0.1% |  |  | 
2 | COC(=O)N1CCC(CN2CCC(CNC(=O)c3cccc4[nH]c(C(C)C)nc34)CC2)CC1 [Example 1, 4-(4-{[(2-isopropyl-1H-benzoimidazole-4-carbonyl)-amino]methyl}piperidin-1-ylmethyl)piperidine-1-carboxylic acid methyl ester] |  |  |  |  |  | 1200 | 800 | ~75
